Experimental data from patent publication US20230054318A1, “PERSONALIZED TUMOR VACCINE AND USE THEREOF FOR CANCER IMMUNOTHERAPY” (priority 2019, published 2023).

Assay: Human Equivalent Dose (HED) calculation based on body surface area
Settings: for Animal NOAEL: mouse (~20 g)
Text: Provided herein are methods for calculating HED of the MBTA components based on body surface area.
See details from: Nair A B, Jacob S. A simple practice guide for dose conversion between animals and human. J Basic Clin Pharma 2016; 7:27-31
A formula to calculate HED is shown as follows:
HED(mg/kg)=Animal dose(mg/kg)Animal Km/Human Km

## Lipoteichoic acid [LTA, reference compound]
  Animal NOAEL: 1.2 mg/kg

## CCOCc1nc2c(N)nc3ccccc3c2n1CC(C)(C)O [R-848, Resiquimod, reference compound]
mouse
  NOAEL: 1.2 mg/kg

## Mannan
  HED/Safety Factor (10): 0.3851 mg/kg
  Maximum Recommended Starting Dose (MRSD, assuming 60 kg adult): 23.11 mg/day
  Animal NOAEL: 47.5 mg/kg
Mouse Km=3, Human Km=37
  HED: 3.851 mg/kg
